Values after ≈ are worked out from the molar mass of the structure shown.
Assays:
[1] = tested on: Aspergillus fumigatus 040-200167; test: Anti-fungal broth microdilution (MIC), fungus C; format: cell-based; details: filamentous protocol, more than 50% growth inhibition, 48 to 72 h
Summary of the method: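 Broth microdilution followed NCCLS M27-A for the Candida yeasts and M38-A for the Aspergillus filamentous strains, testing 64 down to 0.125 μg/ml in twofold steps against a 10^6 CFU/ml inoculum. For Aspergillus, MIC was read after 48 to 72 h at 35 °C as the concentration giving >50% visible growth inhibition.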

[2] = tested on: Cryptococcus neoformans ATCC 90112; test: Anti-fungal broth microdilution (MIC), fungus H; format: cell-based; details: yeast protocol, more than 80% inhibition, 48 h
Summary of the method: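 Broth microdilution per NCCLS M27-A (yeasts) and M38-A (filamentous fungi), compounds tested from 64 down to 0.125 μg/ml against 10^6 CFU/ml inocula. For filamentous fungi, MIC read after 48 to 72 h at 35° C as the concentration giving more than 50% visible growth inhibition.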

SMILES: CCCCCCCCCCCCCCCCOP(=O)([O-])OCC[N+]1(C)CCCCC1 [Compound 2, Phosphoric acid hexadecyl ester 2-(1-methyl-piperidin-1-yl)-ethyl ester]
- MIC, fungus C [1]: 6 µg/mL (≈ 13.4 µM)
- MIC, fungus H [2]: 1.5 µg/mL (≈ 3.35 µM)

Source: patent US20070167408A1, “NOVEL ALKYL PHOSPHOLIPID DERIVATIVES WITH REDUCED CYTOTOXICITY AND USES THEREOF” (ZENTARIS GmbH, priority 2005, published 2007)
